pEC50: −log10 of the molar value. Like-named read-outs stand apart in the source and are kept apart here.
Experiments:
[1] = test system: Hennes-20 cells; test: Hennes-20 oncology screen; assay type: cell-based; conditions: 72 h, alamar Blue
Protocol: To screen compounds for oncology activity Hennes-20 cells were plated at low (500 cells/well) versus high (15,000 cells/well) densities and treated with DMSO (vehicle) or dose-titration of compounds. The rationale for this screen is that an intrinsically toxic compound should kill cells regardless of density, including in Hennes-20 cells. However, a compound that selectively triggers the arrest of proliferation will inhibit cell growth when plated at a low density will appear cytotoxic due to inhibition of cell growth when plated at a low density but will appear non-toxic to cells plated at a high density where the cells are approaching confluence and the readout detected by a cell viability assay is already close to the maximum.
To conduct the Hennes-20 screen, two 96 well plates were seeded with Hennes 20 cells in parallel where one was plated at a density of 500 cells/well and the other was plated at a density of 15,000 cells/well. 90 uL of minimum essential media was added to each well and plates were placed in a 37 degrees Celsius incubator for 24 hours. The next day, 10 ul of media containing dilutions of compound in DMSO were added to each plate. Six wells on each plate received 10 ul of media containing only DMSO. Each well was gently mixed 5 times with a 100 ul pipette. Plates were incubated at 37 degrees Celsius for 72 hours and then 10 uL of alamar Blue was added to each well. Wells were mixed 5 times then incubated at 37 degrees Celsius for […]. Plates were then read at 530/590.
The rationale for the screen is as follows: Hennes-20 cells lack endogenous apoptosis. Cells plated at low density will proliferate and approach confluence in 72 hrs. A drug that arrests proliferation may have its proliferation blocking effect masked by the triggering of endogenous apoptosis. However, in the Hennes line, lacking endogenous apoptosis, such an arrest is manifest as a dose-dependent maintenance at low cell density. Since the high-density cells are plated close to confluence, the difference between Alamar Blue cell survival readings after 72 hrs reflects the ability of the drug to block proliferation in the low density-plated cells. In the high density-plated cells any diminution of Alamar Blue readout vs vehicle control is due to intrinsic toxicity, not proliferation arrest, since cells were already at confluence. Thus, a compound that appears toxic (low Alamar Blue readings after 72 hrs) on the low-density plate, but which appears non-toxic (high Alamar Blue readings after 72 hrs) on the high-density plate, must be arresting proliferation, since intrinsic compound toxicity should be observed at both low and high cell densities, not selectively on the low-density plate.

[2] = test system: E. coli ATCC25922; test: MIC assay, serial dilution; conditions: Escherichia coli
[3] = test system: C. albicans ATCC 24433; test: Antifungal MIC assay; conditions: Candida albicans, ATCC24433
[4] = test system: A. baumannii ATCC19606; test: MIC assay, serial dilution; conditions: Acinetobacter baumannii
[5] = test system: S. aureus ATCC25923; test: MIC assay, serial dilution; conditions: Staphylococcus aureus
[6] = ATCC25922, read-out: Anti-bacterial Activity (E. coli MIC (uM)), E. coli, Table 5

| Compound | pEC50 [1] | MIC [2, 6] [µM] | also measured |
| --- | --- | --- | --- |
| CC1(C)C2CN(c3ccc4nc5c(N6CCCC6)cc(N6CC7C(C6)C7(C)C)cc5[s+]c4c3)CC21 (centres unmarked) [Compound 4] | 6.30 | 3.1 |  |
| CC1(C)C2CN(c3ccc4nc5c(F)cc(N6CC7C(C6)C7(C)C)cc5[s+]c4c3)CC21 (centres unmarked) [Compound 5] | > 7.00 | 6.25 |  |
| CC1(C)C2CN(c3ccc4nc5c(N6CC7C(C6)C7(C)C)cc(N6CC7C(C6)C7(C)C)cc5[s+]c4c3)CC21 (centres unmarked) [Compound 6] | 6.30 | 6.3 |  |
| CC(C)(C)OC(=O)NCc1cc2nc3ccc(N4CC5C(C4)C5(C)C)cc3[s+]c2cc1N1CC2C(C1)C2(C)C (centres unmarked) [Compound 8] | > 5.60 | 6.3 |  |
| CC1(C)C2CN(c3ccc4nc5cc(Cl)c(N6CC7C(C6)C7(C)C)cc5[s+]c4c3)CC21 (centres unmarked) [Compound 9] | 6.30 | 12.5 |  |
| CCc1cc(N2CC3C(C2)C3(C)C)cc2[s+]c3cc(N4CC5C(C4)C5(C)C)cc(CC)c3nc12 (centres unmarked) [Compound 10] | > 6.30 | 6.25 |  |
| Cc1cc(N2CC3C(C2)C3(C)C)cc2[s+]c3cc(N4CC5C(C4)C5(C)C)cc(C)c3nc12 (centres unmarked) [Compound 11] | > 6.30 | 6.25 |  |
| CCc1cc(N2CC3C(C2)C3(C)C)cc2[s+]c3cc(N4CC5C(C4)C5(C)C)cc(C)c3nc12 (centres unmarked) [Compound 12] | > 6.30 | 6.25 |  |
| CC1(C)C2CN(c3cc(F)c4nc5c(F)cc(N6CC7C(C6)C7(C)C)cc5[s+]c4c3)CC21 (centres unmarked) [Compound 13] | 5.60 | 12.5 |  |
| Cc1cc(N2CC3C(C2)C3(C)C)cc2[s+]c3c(F)c(N4CC5C(C4)C5(C)C)cc(C)c3nc12 (centres unmarked) [Compound 14] | > 6.30 | 6.25 |  |
| CC1(C)C2CN(c3ccc4nc5c(Cl)cc(N6CC7C(C6)C7(C)C)cc5[s+]c4c3)CC21 (centres unmarked) [Compound 15] | 5.60 | 12.5 |  |
| c1cc2nc3c(N4CCCC4)cc(N4CCCC4)cc3[s+]c2cc1N1CCCC1 [Compound 20] | 6.30 | 0.8 |  |
| Cc1cc(N2CCCC2)cc2[s+]c3c(F)c(N4CCCC4)cc(C)c3nc12 [Compound 21] | > 6.30 | 1.6 |  |
| c1cc2nc3ccc(N4CCCCCC4)cc3[s+]c2cc1N1CCCCCC1 [Compound 22] | > 6.30 | 1.6 |  |
| CC1(C)C2CN(c3cc(N4CCCC4)cc4[s+]c5cc(N6CCCC6)ccc5nc34)CC21 (centres unmarked) [Compound 23] | > 6.30 | 1.6 |  |
| CC(C)(C)OC(=O)NCc1cc2nc3ccc(N4CCCC4)cc3[s+]c2cc1N1CCCC1 [Compound 24] | > 5.60 | 1.6 |  |
| c1cc2nc3ccc(N4CCC4)cc3[s+]c2cc1N1CCC1 [Compound 29] | > 5.60 | 25 |  |
| CN(C)c1ccc2nc3ccc(N4CC5C(C4)C5(C)C)cc3[s+]c2c1 (centres unmarked) [Compound 31] | > 5.60 | 1.6 |  |
| CN(C)c1ccc2nc3ccc(N4CCCC4)cc3[s+]c2c1 [Compound 35] | 6.30 | 12.5 |  |
| c1cc(N2CCCC2)c2nc3ccc(N4CCCC4)cc3[s+]c2c1 [Compound 38] | 5.60 | 6.3 |  |
| CC(C)c1cc(N2CCCC2)cc2[s+]c3cc(N4CCCC4)ccc3nc12 [Compound 41] | > 6.30 | 1.6 |  |
| Clc1cc(N2CCCC2)cc2[s+]c3cc(N4CCCC4)cc(Cl)c3nc12 [Compound 42] | > 4.90 | 1.6 |  |
| Fc1cc(N2CCCC2)cc2[s+]c3cc(N4CCCC4)ccc3nc12 [Compound 43] | 6.30 | 3.1 |  |
| CC(C)(C)OC(=O)NCC1CCCN1c1ccc2nc3ccc(N4CCCC4CNC(=O)OC(C)(C)C)cc3[s+]c2c1 (centres unmarked) [Compound 49] | > 5.60 | 1.6 |  |
| FC1(F)CCN(c2ccc3nc4ccc(N5CCC(F)(F)C5)cc4[s+]c3c2)C1 [Compound 53] | < 4.90 | 12.5 |  |

| Compound | pEC50 [1] | MIC [2, 6] [µM] | also measured |
| --- | --- | --- | --- |
| CCc1cc(C(C)C)cc2[s+]c3cc(N(C)C)cc(CC)c3nc12 [Compound 60] | > 5.60 |  |  |
| c1cc2nc3ccc(N4CCCCC4)cc3[s+]c2cc1N1CCCCC1 [Compound 62] | > 6.30 | 6.3 |  |
| CCN(CC)c1cc(Br)c2nc3c(C(C)(C)C)cc(N(CC)CC)cc3[s+]c2c1 [Compound 63] | 5.60 |  |  |
| CC(C)(C)c1cc(N2CCCC2)cc2[s+]c3cc(N4CCCC4)ccc3nc12 [Compound 65] | > 6.30 | 3.1 |  |
| COCCN(CCOC)c1ccc2nc3c(C(C)(C)C)cc(N(CCOC)CCOC)cc3[s+]c2c1 [Compound 67] | > 6.30 |  |  |
| CCCCc1cc(N2CCCC2)cc2[s+]c3cc(N4CCCC4)ccc3nc12 [Compound 70] | > 5.60 |  |  |
| FC(F)(F)c1cc(N2CCCC2)cc2[s+]c3cc(N4CCCC4)ccc3nc12 [Compound 71] | > 5.60 |  |  |
| CCc1cc(N2CCCC2)cc2[s+]c3cc(N4CCOCC4)cc(CC)c3nc12 [Compound 72] | > 4.90 | 25 |  |
| CCc1cc(N(C)C)cc2[s+]c3cc(N4CCCN(C(=O)OC(C)(C)C)CC4)cc(CC)c3nc12 [Compound 74] | > 6.30 | 6.3 |  |
| FC(F)(F)c1cc(N2CCCC2)cc2[s+]c3cc(N4CCCC4)cc(N4CCCC4)c3nc12 [Compound 75] | > 5.60 |  |  |
| COc1cc2nc3c(N4CCCC4)cc(N4CCCC4)cc3[s+]c2cc1N1CCCC1 [Compound 76] | > 5.60 |  |  |
| N#Cc1cc(N2CCCC2)cc2[s+]c3cc(N4CCCC4)cc(N4CCCC4)c3nc12 [Compound 78] | > 5.60 |  |  |
| Cc1cc(N2CCCC2)cc2[s+]c3cc(N4CCCC4)ccc3nc12 [Compound 79] | > 4.90 |  |  |
| CCc1cc(N(CC)CC)cc2[s+]c3cc(N(CC)CC)cc(CC)c3nc12 [Compound 80] | > 5.60 | 25 |  |
| CCc1cc(N2CCCNCC2)cc2[s+]c3cc(N4CCCC4C)cc(CC)c3nc12 (centres unmarked) [Compound 81] | > 5.60 |  |  |
| COc1cc2nc3ccc(N4CCCC4)cc3[s+]c2cc1N1CCCC1 [Compound 84] | > 4.90 |  |  |
| CN1CCN(c2ccc3nc4c(C(C)(C)C)cc(N5CCN(C)CC5)cc4[s+]c3c2)CC1 [Compound 85] | 4.90 |  |  |
| Clc1cc(N2CCCC2)cc2[s+]c3cc(N4CCCC4)ccc3nc12 [Compound 86] | > 6.30 |  |  |
| CC(C)(C)c1cc(N2CCOCC2)cc2[s+]c3cc(N4CCOCC4)ccc3nc12 [Compound 88] | 4.90 |  |  |
| CC(C)(C)c1cc(N2CCCC2)cc2[s+]c3cc(N4CCC(C(=N)N)CC4)ccc3nc12 [Compound 89] | 4.90 |  |  |
| CC(C)(C)c1cc(N2CCC(C(=N)N)CC2)cc2[s+]c3cc(N4CCC(C(=N)N)CC4)ccc3nc12 [Compound 90] | 4.90 |  |  |
| CC(C)(C)c1cc(N2CCC(C(=N)N)CC2)cc2[s+]c3cc(N4CCCC4)ccc3nc12 [Compound 91] | < 4.90 |  |  |
| Cc1cc(N2CCOCC2)cc2[s+]c3cc(N4CCOCC4)cc(C)c3nc12 [Compound 93] | > 4.90 | 100 |  |
| CC(C)(C)OC(=O)NC1C2CN(c3cc(N4CCCC4)cc4[s+]c5cc(N6CCCC6)ccc5nc34)CC21 (centres unmarked) [Compound 111] |  |  | MIC [3]: 1.6 µM |
| COC(=O)C1C2C(CN1c1cc(N3CCCC3)cc3[s+]c4cc(N5CCCC5)ccc4nc13)C2(C)C (centres unmarked) [Compound 116] |  |  | MIC [4]: 6.25 µg/mL; MIC ([2]; ATCC25922, E. coli ATCC25922): 12.5 µg/mL; MIC [5]: 1.6 µg/mL |
